“Also recorded” adds a separate entry of the source. Where a name gives a salt, the structure may show the parent alone.
Tested on: patients with cerebral vasospasm
Assay: Vasoactive medications tried on Applicant's patients with vasospasm, monitored by Transcranial Doppler (TCD), exam and symptoms
Settings: for effectiveness in treating the vasospasm: qualitative rating in Applicant's patient population (tend to be the most severe cases); for effect on vessels seen on TCD / ultrasound (vasoconstriction or dilatation) / headache / neurological exam and other neurological abnormalities: human, in vivo
[1] = anti-epileptic drugs in therapeutic doses
[2] = IM, lower doses than 90 to 120 mg

C[C@H](CS)C(=O)N1CCC[C@H]1C(=O)O [Capoten, Captopril]
effectiveness in treating the vasospasm: close second tier medications

NCCCC[C@H](N[C@@H](CCc1ccccc1)C(=O)O)C(=O)N1CCC[C@H]1C(=O)O [Zestril, Lisinopril]
effectiveness in treating the vasospasm: extremely effective

O=C1NC(=O)C(c2ccccc2)(c2ccccc2)N1 [Dilantin, Phenytoin]
EEG abnormalities and neurocognitive or neurological complaints [1]: improved in some patients
change of the vasospasm [1]: none of the medications in therapeutic doses have changed the vasospasm

O=C(O)C(O)C(O)C(=O)O.Oc1ccc2c(c1)[C@@]13CCCC[C@@]1(O)[C@@H](C2)N(CC1CCC1)CC3 [Stadol, butorphanol tartrate]
effect on vessels seen on TCD / ultrasound (vasoconstriction or dilatation): caused vasoconstriction
headache: improved their headache
neurological exam and other neurological abnormalities: worsened the patient's neurological exam and mentation

COc1ccc([C@@H]2Sc3ccccc3N(CCN(C)C)C(=O)[C@@H]2OC(C)=O)cc1 [Dilacor, Diltiazem]
effectiveness in treating the vasospasm: less effective

COC(=O)[C@H]1[C@H]2C[C@@H]3c4[nH]c5cc(OC)ccc5c4CCN3C[C@H]2C[C@@H](OC(=O)c2cc(OC)c(OC)c(OC)c2)[C@@H]1OC [Reserpine]
effectiveness in treating the vasospasm: very effective; also recorded: extremely effective

O=C(c1ccccc1)c1ccc2n1CCC2C(=O)O (stereo not shown) [Toradol, ketorolac tromethamine]
effect on Transcranial Doppler ultrasound (90 to 120 mg IM doses): causes acute vasodilation on ultrasound in most patients
reversal of reactive vasoconstriction (Nitric Oxide sensitivity reaction) after first nitrate dose (IM): can be immediately reversed
effectiveness (IM, doses lower than 90-120 mg): not so effective
effect on Transcranial Doppler ultrasound [2]: generally do not show significant changes
patient-reported symptoms [2]: symptomatic improvement
improvement on Transcranial Doppler Artery Ultrasound (IV, 30 to 60 mg doses): does not cause any improvement
effect on vessels seen on TCD / ultrasound (vasoconstriction or dilatation): resulted in vascular dilatation
headache: alleviated or treated the headache
neurological exam and other neurological abnormalities: clinical and neurological exam improvement
vasodilation (intramuscularly (I.M.) or oral form after oral or I.M. loading): gives the expected vasodilation

CN(C)CCCN1c2ccccc2Sc2ccc(Cl)cc21 [Thorazine, Chlorpromazine]
effectiveness in treating the vasospasm: moderately effected; also recorded: moderately effective

COc1cc2nc(N3CCN(C(=O)C4COc5ccccc5O4)CC3)nc(N)c2cc1OC (stereo not shown) [Cardura, Doxazosin]
effectiveness in treating the vasospasm: relatively mild medication

COc1cc2nc(N3CCN(C(=O)C4CCCO4)CC3)nc(N)c2cc1OC (stereo not shown) [Hytrin, Terazosin]
effectiveness in treating the vasospasm: less successful results; also recorded: has not been found to be effective

CSc1ccc2c(c1)N(CCC1CCCCN1C)c1ccccc1S2 (stereo not shown) [Mellaril, Thioridazine]
effectiveness in treating the vasospasm: has not been effective; also recorded: no significant effects

CC(COc1ccccc1)N(CCCl)Cc1ccccc1 (stereo not shown) [Dibenzyline, Phenoxybenzamine]
effectiveness in treating the vasospasm: relatively mild

COCCc1ccc(OCC(O)CNC(C)C)cc1 (stereo not shown) [Lopressor, Metoprolol Tartrate]
effectiveness in treating the vasospasm: None of these have been significantly effective at vasodilation

CCOC(=O)[C@H](CCc1ccccc1)N[C@@H](C)C(=O)N1Cc2ccccc2C[C@H]1C(=O)O [Accupril, Quinapril]
effectiveness in treating the vasospasm: consistently been the most effective
weaning from oral medications (with concomitant low dose Nitroglycerin, 1/10th inch once to several times a day): most patients may be eventually weaned from the use of oral medications

CN1C[C@H](C(=O)N[C@]2(C)O[C@@]3(O)[C@@H]4CCCN4C(=O)[C@H](Cc4ccccc4)N3C2=O)C[C@@H]2c3cccc4[nH]cc(c34)C[C@H]21 [DHE]
effect on vessels seen on TCD / ultrasound (vasoconstriction or dilatation): caused vasoconstriction
headache: improved their headache
neurological exam and other neurological abnormalities: worsened the patient's neurological exam and mentation

CCOC(=O)[C@H](CCc1ccccc1)N[C@H]1CCc2ccccc2N(CC(=O)O)C1=O [Lotensin, Benazepril]
effectiveness in treating the vasospasm: close second tier medications
